Source: patent US9464121B2, “Compositions and methods for treating erectile dysfunction” (priority 2007, dated 2016)
“Also recorded” adds a separate entry of the source. Structures can show the parent of a compound that is named as a salt.

Legend:
C2C12 myoblasts = experiment: Intracellular calcium determination with Fluo-3AM (confocal microscopy); format: cell-based
Procedure: To confirm that the f40/7841 polypeptide had no effect on calcium flux, C2C12 myoblasts were treated with f40/7841 polypeptide and intracellular calcium levels were assayed using the calcium-sensitive fluorchrome, Fluo-3AM. For the intracellular Ca^2+ measurements, a Confocal LSM 510 Meta Confocal (Zeiss, Jena, Alemania) microscope with a lasing line excitation of 488 nm was used. C2C12 cells were seeded in 60 mm culture dishes (Nalge Nunc International, Rochester, N.Y.) and cultured for 48 hours at which time each plate contained about 250,000 cells. The cells were loaded with fluorochrome in concentration of 4 μM fluo-3AM (Sigma) in 0.5% Me2SO and 0.1% of pluronic acid F-127 for 30 minutes at 37° C.; washed three times with a modified Dulbecco's solution with 10% of fetal bovine serum and returned to the incubator.
The fluorescence of Fluo-3AM was stimulated at 488 nm and measured at 515 nm using a bandpass filter. The intracellular Ca^2+ was measured for 10 seconds, followed by the addition of 1 μM f40/7841 polypeptide and 1.5 mM of carbachol. The Ca^2+ changes were monitored for 2 minutes and the images were taken every 1.5 sec. The calcium ionophore 4-Br-A23187 (5 μM) followed by 10 mM EGTA were then added to obtain the maximum calcium excitation (Fmax) and the minimum fluorescence (Fmin), respectively. The intracellular [Ca^2+] of fluorescence (F) obtained by the used f40/7841 was calculated in the following way: intracellular [Ca^2+]=Kd*(*F−F*min)/(*F*max−*F*), assuming 450 nM. *Kd* for the fluo-3AM, the concentrations were calculated in cellular populations that contained at least 10 cells.

corpus cavernosum [1] = experiment: In vitro corpus cavernosum assay for smooth muscle relaxation (isolated organ chamber, phenylephrine-contracted tissue); format: cell-based, Wistar adult male rats
Procedure: The effect of polypeptides on corpus cavernosum contractile activity in vitro was analyzed in corpus cavernosum tissue harvested from Wistar adult male rats. Tissue was vertically positioned in an isolated organ chamber under the conditions described below. Adult male Wistar rats, aged 1.5-2 months and 250-350 g in weight were sacrificed by cervical dislocation and the penis was removed from the base, yielding about 2 cm of isolated tissue. The penile tissue was dissected under a Zeiss STEMI DV4 stereoscopic magnifying glass. The tunica albuginea, which protects the cavernous and spongious corpuses, was gently removed. The cavernous bodies were removed from their central position, obtaining two fragments of equal length and diameter, which were then transferred to a Tyrode physiological solution properly oxygenated (mix of 95% O2 and 5% CO2), at 37° C. at pH 7.4.
The cavernous segments were tied with silk at their distal and proximal extremes and immersed in a Tyrode physiologic solution in the chambers. The distal part was tied to the connecting rod and the proximal portion was connected to the isometric contraction transducer (TRI 201/0-25 g) connected to an analogue/digital interphase Power Lab/4SP Ad instrument, making it possible to store and analyse the registered signals by the use of Chart 5 software. Essentially, the fragments were connected to a analogic tension transducer, which transferred its signal to a Power Lab-Letica interphase, which records, graphs and stores the information generated by the physiologic preparation in force/time (g/min scale).
Prior to assaying the polypeptides, the isolated corpus cavernosum samples were stabilized as follows. After placing the corpus cavernosum in the isolated organ chamber, a 0.5 g tension at a normal velocity (1:1 proportion) was applied for one hour. During this time the basal tension and oxygenation (10 ml/min) remained constant. After the first 20 minutes, the preparation was washed using Tyrode physiologic solution, the tension was fixed and the procedure was repeated every 20 minutes for a total of 4 times. In the final washing process, in Chart 5 control system, the recording speed was modified from 10× to 1×.
The ability of f40/7841 to induce smooth muscle relaxation was assayed in the corpus cavernosum assay described in Example 2 in the presence of 50 μM phenylephrine, a pharmacological agonist of the alpha-adrenergic receptor that induces smooth muscle contraction.
To determine the relaxation potential it was necessary to induce first a maximum contractile response (control), in the presence of a drug that activates α-adrenergic receptors, phenylephrine (50 μM). The obtained results of the experimental series are statistically analyzed with a statistical significance of P<0.05, and graphed with GraphPad Prim.V.3.02 software.

[2] = target: T1, alpha 7 nicotinic acetylcholine receptor (α7nAch) (Homo sapiens, UniProt P36544); experiment: Whole-cell patch clamp of PC12 cells engineered to express the alpha 7 nicotinic acetylcholine receptor; format: cell-based
T1 construct: expressed in transfected cells; host or cells: PC12 cells
T1 sequence (P36544 23-502): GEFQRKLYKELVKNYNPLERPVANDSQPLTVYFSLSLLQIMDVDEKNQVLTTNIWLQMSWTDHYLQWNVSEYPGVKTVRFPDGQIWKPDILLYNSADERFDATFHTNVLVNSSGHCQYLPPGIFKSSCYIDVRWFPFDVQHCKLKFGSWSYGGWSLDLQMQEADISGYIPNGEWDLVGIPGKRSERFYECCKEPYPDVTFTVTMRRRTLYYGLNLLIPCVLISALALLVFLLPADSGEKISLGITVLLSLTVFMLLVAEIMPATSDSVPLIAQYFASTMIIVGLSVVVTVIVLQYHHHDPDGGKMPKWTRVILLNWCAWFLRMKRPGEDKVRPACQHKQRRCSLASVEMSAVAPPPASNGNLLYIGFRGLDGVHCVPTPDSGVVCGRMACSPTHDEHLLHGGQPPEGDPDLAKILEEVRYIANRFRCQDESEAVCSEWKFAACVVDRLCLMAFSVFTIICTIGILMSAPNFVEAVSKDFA
Procedure: The ability of the f40/7841 polypeptide to activate nicotinic acetylcholine receptors (nAChR) was assayed by whole cell patch clamp analysis of PC12 cells that had been engineered to express the alpha 7 nicotinic acetylcholine receptor (α7nAch). PC12 cells were transfected and cultured for 48 hours in an 80% of MEM, solution that contained (mM): 150 NaCl, 5.4 KCl, 2.0 CaCl2, 1.0 MgCl2, 10 glucose and 10 Hepes (7.4), 2 mM, and 10% of fetal bovine serum at 37° C. (Trifaro et al. In vitro Cell Dev. Biol. 1990). The cells were incubated for one hour at 22° C. before starting the experiments. The current changes were detected through a whole-cell patch-clamp system through a Warner PC-501^a amplifier and an inverted Olympus 9° 70 microscope. The membrane potential was adjusted to −60 mV; the current was recorded at intervals of 5 μs and it was filtered at 2 Kh using a computer connected to a recording system through an acquisition card Digidata 9.0 (Axon Instrument, Inc) and the software PC 9 (Axon Instrument, Inc). The stock solution for the assays with the peptides were kept refrigerated at 4° C. and the micropipettes contained an internal solution of: 140 mM NaCl, 5 mM KCl, 2 mM CaCl2, 1.5 mM MgCl2, and 10 mM HEPES, pH 7.4.
The purified f40/7841 polypeptide was purified according to the method in Example 1. 0.1 mg of the polypeptide was diluted in 100 μl. of sterile PBS at pH 7.4. […]

corpus cavernosum [3] = experiment: In vitro corpus cavernosum assay for smooth muscle relaxation (isolated organ chamber, phenylephrine-contracted tissue); format: cell-based, Wistar adult male rats; conditions: phenylephrine 5 μM, atropine 1 μM, polypeptide 1 μgml (FIG. 13)

With CNc1c(Br)cc2oc(C[C@H]3OC4(CC[C@H]3C)O[C@H]([C@H](C)C(=O)c3ccc[nH]3)[C@H](C)C[C@H]4C)nc2c1C(=O)O (some centres unmarked) [4-Br-A23187] the “Fluo-3AM fluorescence (calcium) after ionophore” value (C2C12 myoblasts; 4-Br-A23187 5 μM, positive control (FIG. 17)) was “sharp spike of fluorescence”.

For O=C(O)CN(CCOCCOCCN(CC(=O)O)CC(=O)O)CC(=O)O [EGTA], the “effect on ionophore-induced fluorescence spike” value (C2C12 myoblasts; 10 mM EGTA added after 4-Br-A23187 (FIG. 17)) was “abolished”.

With CN1[C@@H]2CC[C@H]1C[C@@H](OC(=O)C(CO)c1ccccc1)C2 (some centres unmarked) [atropine] the “tonic response to phenylephrine in the presence of atropine” value (corpus cavernosum [1]; atropine 1 uM added after 40 minutes of phenylephrine (FIG. 13, upper tracing)) was “gradually reduced over time”.

Work on C[N+](C)(C)CCOC(N)=O [carbachol] yielded a potassium current ([2]; 10 μM carbachol, positive control, membrane potential −60 mV (FIG. 15)) of 10 pA.

In the case of CNC[C@H](O)c1cccc(O)c1 [phenylephrine], the “contractile response of corpus cavernosum” value (corpus cavernosum [1]; phenylephrine 50 μM (FIG. 7, FIG. 9)) is reported as “phasic contractile response followed by a steadily maintained tonic response; also recorded: quick phasic contraction”.

With CCCc1nn(C)c2c(=O)[nH]c(-c3cc(S(=O)(=O)N4CCN(C)CC4)ccc3OCC)nc12 [sildenafil citrate, 1-[4-ethoxy-3-(6,7-dihydro-1-methyl-7-oxo-3-propyl-1H-pyrazolo[4,3-d]pyrimidin-5-yl)phenylsulfonyl]-4-methylpiperazine] the “contractile response after sildenafil citrate alone” value (corpus cavernosum [1]; 1 μM, after 50 μM phenylephrine, over a period of 25-30 minutes (FIG. 1)) was “slow decrease of the contractile response” and the “concentration of sildenafil citrate alone required for a relaxation rate comparable to f40/7841 plus 1 μM sildenafil citrate” value (corpus cavernosum [1]; after 50 μM phenylephrine, typical value) was 100 µM.

B1: f40/7841 (protein)
chain: GDSLDPAEFACADDIDQAELLKNNDICLQCEDLHKEGLVFSLCKTNCFSTEYFQHCVKDLEEAKKEPPE
modifications: also: blocked N-terminus, not given here
With B1 the “calcium flux (intracellular Ca2+, Fluo-3AM fluorescence)” value (C2C12 myoblasts; 1 μM polypeptide and 1.5 mM carbachol, monitored for 2 minutes (FIG. 17)) was “did not induce calcium flux”, the “ability to induce relaxation, atropine added prior to phenylephrine” value (corpus cavernosum [1]; 1 μM atropine, then phenylephrine 50 μM, polypeptide 2 μg/ml after twenty minutes (FIG. 14)) was “attenuated” and the “effect on tonic contraction (relaxation)” value (corpus cavernosum [1]; 2 μg/ml added after 20 minutes of 50 μM phenylephrine (FIG. 10)) was “rapid decrease in tonic contraction”. For the same molecule, the “relaxation of contracted tissue in the presence of L-NAME (nitric oxide synthase inhibitor)” value (corpus cavernosum [1]; phenylephrine, then L-NAME 10 mM, then polypeptide 0.02, 0.2 or 2 μg/ml (FIG. 11, FIG. 12), listed as f40/7481) was “did not induce a decrease in contraction; also recorded: abolished”, the “contractile response on co-addition with sildenafil citrate, compared to sildenafil citrate alone” value (corpus cavernosum [1]; polypeptide 2 μg/ml plus 1 μM sildenafil citrate, after 50 μM phenylephrine (FIG. 1)) was “significant decrease in the contractile response” and the rapid potassium current ([2]; 0.1 μg/ml polypeptide, membrane potential −60 mV (FIG. 16, in the presence of carbachol)) was 500 pA. The “ability to induce relaxation in the presence of atropine” value (corpus cavernosum [3]) was “attenuated”.
